Where “and” joins values, the source holds several entries; their conditions need not be identical. Identical values can stand only once.
Key:
[1] = Permeability of pH-modified Clenbuterol CPA through human skin, Franz cell; type: in vitro ADME, Mensch; details: Zelle 1-3 are replicates
Method: Permeabilität von pH-Wort modifiziertem Clenbuterol CPA durch Humanhaut:
Zusammensetzung der CPA's:
Als Freigabeapparatur wurde eine Franz-Zelle verwendet. Dies ist eine übliche Methode, um die Abgabe von Arzneistoffen aus pharmazeutischen Formulierungen zu testen. Proben wurden nach 24 h bzw. 48h entnommen und der Gehalt an Clenbuterol bestimmt.

[2] = Flux rate of Clenbuterol through the skin as a function of the skin surface pH (Fig. 9); type: in vitro ADME, Mensch
Description: Überraschenderweise wurde nun festgestellt, daß bei einer transdermalen Applikation von Clenbuterol die Fluxrate für den Wirkstoff entscheidend verbessert werden kann, wenn der pH-Wert der Hautoberfläche auf einen Wert konstant zwischen 6,0 und 8,5 gehalten wird.
Die Fluxrate eines Wirkstoffes durch die Haut ist definiert als Menge des Wirkstoffes pro Hautoberfläche und pro Zeiteinheit und wird üblicherweise in [µg/cm^2 . h] angegeben. In dem oben angegebenen pH-Bereich erreicht die Fluxrate für Clenbuterol ihr Maximum, während bei höheren und niederen pH-Werten die Fluxrate stark abnimmt.
Der pH-Wert der Hautoberfläche ist beim Menschen individuell und temporär verschieden. Ein als Standard angenommener pH-Wert von […] bis 6,0 schwankt im Individualfall zwischen pH 4,5 und 8,0 und hängt von vielen unterschiedlichen Faktoren ab. Schwankungen des pH-Wertes können daneben zum einen durch das Pflaster selbst und zum anderen durch den Wirkstoff hervorgerufen werden. Wie aus der Abb. I ersichtlich ist, nimmt die Fluxrate von Clenbuterol außerhalb des angegebenen pH-Bereichs drastisch ab, so daß eine ausreichende Permeabilität der Haut für Clenbuterol nicht mehr gewährleistet ist.
In Fig. 9 ist die Permeabilität P von Clenbuterol durch die menschliche Haut aufgetragen (Funktion A); P ist angegeben in [cm/sec]. […]

[3] = CPA pH-Wert 3.5 (5 % Clenbuterol, 5 % Zitronensäure, 90 % Eudragit E 30 D)
[4] = CPA pH-Wert 10.0 (5 % Clenbuterol, 5 % Na2CO3, 90 % Eudragit E 30 D)

CC(C)(C)NCC(O)c1cc(Cl)c(N)c(Cl)c1 (stereo not drawn) [Clenbuterol]
Clenbuterol Diffusion nach 24 h [1, 3]: 3.48 µg/cm^2 and 0.65 µg/cm^2 and 2.64 µg/cm^2 | Clenbuterol Diffusion nach 48 h [1, 3]: 5.52 µg/cm^2 and 1.69 µg/cm^2 and 6.04 µg/cm^2 | Clenbuterol Diffusion nach 24 h [1, 4]: 7.8 µg/cm^2 and 11.44 µg/cm^2 and 9.84 µg/cm^2 | Clenbuterol Diffusion nach 48 h [1, 4]: 21.7 µg/cm^2 and 27.3 µg/cm^2 and 24.2 µg/cm^2 | Fluxrate ([2]; at pH values higher and lower than the range 6,0 to 8,5): stark abnimmt | Fluxrate ([2]; skin surface pH between 6,0 and 8,5): Maximum

— patent EP0456792B1, “IMPROVED SYSTEM FOR THE TRANSDERMAL APPLICATION OF PHARMACOLOGICALLY ACTIVE COMPOUNDS AT CONTROLLED pH” (Boehringer Ingelheim International GmbH, priority 1989, dated 1991)
